Data from publication PMC11175446 (2024).

Assays:
[1] = test system: 2xF30-Broccoli RNA (Bi), transcript of T7 promoter-Broccoli template without operator (RNA, aptamer) UUGCCAUGUGUAUGUGGGAGACGGUCGGGUCCAGAUAUUCGUAUCUGUCGAGUAGAGUGUGGGCUCCCACAUACUCUGAUGAUCCUUCGGGAUCAUUCAUGGCAA; test: fluorescence turn-on during in vitro transcription; details: 25 mM NaCl, 8 mM MgCl2; 40 mM Tris-HCl pH 8.0, 2 mM spermidine, 5 mM DTT, 34 °C, 20 μM dye; NTPs, T7 RNAP present
[2] = test system: Broccoli run-off transcript of the 251 bp T7 promoter-O1-Broccoli template (RNA, aptamer) GGCAAUUGUGAGCGGAUAACAAUUCUAGAUUGCCAUGUGUAUGUGGGAGACGGUCGGGUCCAGAUAUUCGUAUCUGUCGAGUAGAGUGUGGGCUCCCACAUACUCUGAUGAUCCUUCGGGAUCAUUCAUGGCAAGGAUCCG; test: fluorescence turn-on during in vitro transcription; details: 25 mM NaCl, 8 mM MgCl2; 40 mM Tris-HCl pH 8.0, 2 mM spermidine, 5 mM DTT, 34 °C, 20 μM dye; NTPs, T7 RNAP present

CC1=N/C(=C\c2cc(F)c(O)c(F)c2)C(=O)N1CC(F)(F)F
binding [1]: yes | binding [2]: yes
